# “Also recorded” adds a separate entry of the source.
# What was measured:
# [1] = in vivo; cited from earlier work
# [2] = test system: adult and elderly subjects with insomnia disorder; assay: Phase 3 double-blind placebo-controlled polysomnography study, Example A (NCT03545191), 25 mg and 50 mg; type: in vivo, human; settings: for IDSIQ sleepiness domain score: month 1 and month 3
# Description: (§1) Daridorexant entered two phase 3 multi-center, double-blind, randomized, placebo-controlled, parallel-group, polysomnography study to assess the efficacy and safety of ACT-541468 in adult and elderly subjects with insomnia disorder. (NCT03545191, EudraCT Number: 2017-004642-20 testing strengths of 25 mg and 50 mg; and NCT03575104, EudraCT Number: 2017-004643-20 testing strengths of 10 mg and 25 mg). To assess daytime functioning, said phase 3 studies investigate as a secondary endpoint the IDSIQ sleepiness domain score, using as a dedicated patient reported outcome (PRO) instrument the Insomnia Daytime Symptoms and Impacts Questionnaire (IDSIQ) (S. Hudgens et al., The Patient—Patient-Centered Outcomes Research (2021) 14:249-268). The instrument is based on the Daytime Insomnia Symptom Scale (DISS) (Buysse et al., Sleep Medicine 8 (2007) 198-208; Buysse et al., SLEEP 29(9) (2006) 1155-1173) and designed to characterize and compare daytime symptoms in insomnia. The IDSIQ is structured in three domains (alertness/cognition; (negative) mood; tiredness/sleepiness) and contains overall 14 items, each based on an 11-point numeric rating scale. For each domain score the total rating score of all associated items is considered.
# Example A): Multi-Center, Double-Blind, Randomized, Placebo-Controlled, Parallelgroup, Polysomnography Study to Assess the Efficacy and Safety of ACT-541468 in Adult and Elderly Subjects with Insomnia Disorder
# The study comprises the following 3 phases: the screening phase, the treatment phase, and the safety follow-up phase. The screening phase starts with the signature of the informed consent form at Visit 1 and ends at Randomization (Visit 4), provided the subject fulfills all the eligibility criteria. It includes the Screening period and the Run-in period. The screening phase lasts […]. The Screening period starts with Visit 1 and ends at Visit 2. During the Screening period, the investigator verifies eligibility criteria and eligible subjects perform a one-night polysomnography (PSG) assessment. The Screening period lasts 7 to 18 days to allow time to perform all required procedures at Visit 1, the PSG assessment and collect the minimum number of eDiary entries (i.e., 7 days) between Visit 1 and Visit 2. The Run-in period starts with Visit 2 and ends at Randomization (i.e., Visit 4). At Visit 2 eligible subjects are allocated a single-blinded placebo treatment that is taken daily. During the Run-in period subjects come to the site for Visit 3, which consists of 2 PSG nights and is performed when the subject has completed the eDiary for at least 7 days and eligibility is confirmed. The Run-in period lasts 13 to 24 days, to allow collection of the minimum number of eDiary entries (i.e., 7 days), perform 2 PSG nights at Visit 3, and receive the eligibility confirmation from the PSG central reader. The double-blind (DB) treatment phase lasts 3 months. It starts at Randomization (Visit 4). DB study treatment is taken daily. A safety telephone call is performed at Visit 5 to collect information about adverse events (AEs) and concomitant medications. Sleep parameters of each subject are objectively assessed with 2 consecutive PSG nights at Visit 6 and Visit 8. A safety visit without PSG night is performed at Visit 7. An eDiary is completed every day during the treatment phase. End-of-Double-Blind-Treatment (EODBT) is reached in the second morning of Visit 8. The safety follow-up phase starts after EODBT. It consists of a single-blind placebo run-out period of 7 days and a safety follow-up period. The Run-out period starts in the evening of Visit 9. Visit 9 consists of one PSG night on single-blind placebo treatment. Visit 9 is followed by 6 days at home with single-blind placebo treatment. The eDiary is completed every day during the Run-out period. The end of the Run-out period (End-of-Treatment [EOT]) is reached after all visit assessments have been performed at Visit 10. […]
# [3] = test system: adult and elderly subjects with insomnia disorder; assay: Phase 3 double-blind placebo-controlled polysomnography study, Example B (NCT03575104), 10 mg and 25 mg; type: in vivo, human
# Description: as §1
# Example B): Multi-Center, Double-Blind, Randomized, Placebo-Controlled, Parallelgroup, Polysomnography Study to Assess the Efficacy and Safety of ACT-541468 in Adult and Elderly Subjects with Insomnia Disorder
# The study (NCT03575104) is conducted in analogy to the study of Example A), using daridorexant strengths of 10 mg and 25 mg.
# [4] = test system: animal model of agitation; settings: in vivo; cited from earlier work
# [5] = test system: subjects with insomnia disorder; settings: cited from earlier work; for visual analog scales (VASs) on morning sleepiness, daytime alertness, and daytime ability to function: compared with placebo at week 2, higher doses, not sustained at week 4
# rat = settings: cited from earlier work
# [6] = 25 mg and 50 mg once daily in the evening, Month 1 and Month 3, vs placebo
# [7] = both doses (25 mg, 50 mg), all timepoints, vs placebo
# [8] = 10 mg, month 1 and month 3, vs placebo
# [9] = 25 mg, month 1 and month 3, vs placebo
compound,measurement,setting,value
Cc1ccc(-n2nccn2)c(C(=O)N2CCN(c3nc4cc(Cl)ccc4o3)CC[C@H]2C)c1 [suvorexant],halflife (t½),[1],12 h
"COc1ccc(-n2nccn2)c(C(=O)N2CCC[C@@]2(C)c2nc3c(C)c(Cl)ccc3[nH]2)c1 [daridorexant, [(S)-2-(5-Chloro-4-methyl-1H-benzoimidazol-2-yl)-2-methyl-pyrrolidin-1-yl]-(5-methoxy-2-[1,2,3]triazol-2-yl-phenyl)-methanone]","change from baseline in LPS (latency to persistent sleep, sleep onset)",[2]; [6],significant reductions
same,"change from baseline in WASO (wake time after sleep onset, sleep maintenance)",[2]; [6],significant reductions
same,change from baseline in subjective total sleep time (sTST),[2]; [6],increased the subjective total sleep time (sTST) significantly
same,incidence of somnolence,[2]; 25 mg and 50 mg vs placebo,low (lower with daridorexant 50 mg versus placebo) and not dose dependent
same,IDSIQ sleepiness domain score,"[2]; 25 mg, vs placebo",numerical trend; also recorded: numerical improvement
same,falls,[2]; 50 mg dose group compared to placebo,Fewer falls
same,IDSIQ sleepiness domain score,"[2]; 50 mg, vs placebo",significantly improved
same,daytime functioning over time,[2]; 3 months of treatment,gradual improvement
same,"improvements in sleep (WASO, LPS, sTST) over time",[2]; 3 months of treatment,maintained over 3 months; also recorded: maintained over three months
same,tolerability / safety profile,[2]; adult and elderly patients,well tolerated
same,IDSIQ alert/cognition domain score,[2]; [7],decreased; also recorded: improved
same,IDSIQ mood domain score,[2]; [7],decreased; also recorded: improved
same,IDSIQ total score,[2]; [7],decreased; also recorded: improved
same,rate of adverse events,[2]; both treatment doses vs placebo,comparable between placebo and daridorexant
same,next-morning sleepiness effect assessed by visual analog scale (VAS),[2]; every morning,no next-morning sleepiness effect
same,most frequent treatment-emergent adverse events (TEAEs),[2]; in vivo,nasophyringitis and headache
same,"suicide, suicidal ideation, or self-injury",[2]; in vivo,"no suicide, suicidal ideation, or self-injury"
same,number of serious adverse events,[2]; placebo group compared to daridorexant treatment groups,higher in the placebo group
same,rebound insomnia or withdrawal symptoms upon discontinuation,[2]; upon discontinuation,"no rebound insomnia, or withdrawal symptoms"
same,WASO,[3]; [8],not
same,sTST,[3]; [8],not
same,IDSIQ sleepiness domain,"[3]; 25 mg, both time points",numerical trend
same,LPS after log-transformation,"[3]; 25 mg, month 1 and month 3",significantly reduced; also recorded: significant after log-transformation
same,WASO,[3]; [9],significantly decreased
same,sTST,[3]; [9],increased
same,decrease in LPS,"[3]; 25 mg, vs placebo, without log-transformation",did not reach statistical significance
same,activity in animal model of agitation,[4],active
same,morning sleepiness (sleepiness the following day),[5]; any dose vs placebo,no difference
same,"visual analog scales (VASs) on morning sleepiness, daytime alertness, and daytime ability to function",[5],nonsignificant increases
same,wake time after sleep onset,"[5]; phase 2, subjects with insomnia disorder",dose-dependent reduction
same,next-morning residual drug effects,[5]; up to and including the highest dose (50 mg),absence of such effects
same,crossing of the blood-brain barrier,rat,cross the blood-brain barrier
same,"sleep promotion (effects on active wake, home cage activity, NREM sleep, REM sleep)",rat,promote sleep
"Cc1ccc(-c2nc3ccc(C)cn3c2CC(=O)N(C)C)cc1 [zolpidem, reference compound]","visual analog scales (VASs) on morning sleepiness, daytime alertness, and daytime ability to function",[5],pattern was also true

# — patent publication US20230134935A1, “MEDICAL USE OF DARIDOREXANT” (Idorsia Pharmaceuticals Ltd, priority 2020, published 2023)
